Measurements taken from US20250352653A1, “NEURON TARGETED 2-DEOXYGLUCOSE DENDRIMER FOR IMAGING AND TREATMENT OF NEUROLOGICAL DISEASES” (Washington State University, priority 2024, published 2025).

Assays:
[1] = free drug; cited from earlier work
[2] = Water solubility; format: physicochemical; conditions: Rosi and its 2DG-D conjugate
[3] = system: CATH.a neurons; assay: MTT cytocompatibility, CATH.a; format: cell-based; conditions: all tested concentrations, 24 h
Protocol: (§1) Cytocompatibility studies were carried out using MTT assay as described in our previous work. […] After this, all the treated cells were incubated with MTT for 3 h till the purple-colored formazan crystals appeared. For dissolving these crystals, cell culture grade DMSO was added to each of the wells and incubated for 15 min. Finally, the absorbance was recorded at 570 nm using Synergy H1 hybrid multi-mode microplate. The percentage cytocompatibility was calculated using equation 2. All the measurements were done in triplicates with proper controls.

[4] = system: human umbilical vein endothelial cells (HUVECs); assay: MTT cytocompatibility, HUVEC; format: cell-based; conditions: all tested concentrations, 24 h
Protocol: as §1

[5] = system: EOC 20 microglial cells; assay: MTT cytocompatibility, EOC 20; format: cell-based; conditions: all tested concentrations, 24 h
Protocol: as §1

[6] = system: TNF-α; assay: Quantitative TNF-α ELISA; format: cell-based; conditions: LPS:H2O2 induced CATH.a, control 1-fold
Protocol: For determining the effect of 2DG-D-Rosi conjugates on the neuro-inflammation under in vitro conditions, the expression levels of tumor necrosis factor-alpha (TNF-α) and interleukin-6 (IL-6) were analyzed using an enzyme-linked immunosorbent assay (ELISA). The protocol was adapted from previously published literature with slight modifications. Briefly, CATH.a neurons (5×10^4 cells/well) were seeded into 96-well plates and cultured overnight. […] Following the treatment, the consumed culture media was collected and centrifuged at 12,000×g for 10 minutes to remove cellular debris. A 50 μL aliquot of the supernatant was added to ELISA plates pre-coated with primary antibodies for TNF-α and IL-6, respectively, and incubated for approximately 2 h. The cytokine concentrations (pg/mL) were determined using standard calibration curves provided in the ELISA kit, adhering to the manufacturer's instructions. All experiments were performed in triplicates, with appropriate controls.

[7] = system: IL-6; assay: Quantitative IL-6 ELISA; format: cell-based; conditions: LPS:H2O2 induced CATH.a, control ~1-fold
Protocol: For determining the effect of 2DG-D-Rosi conjugates on the neuro-inflammation under in vitro conditions, the expression levels of tumor necrosis factor-alpha (TNF-α) and interleukin-6 (IL-6) were analyzed using an enzyme-linked immunosorbent assay (ELISA). The protocol was adapted from previously published literature with slight modifications. Briefly, CATH.a neurons (5×10^4 cells/well) were seeded into 96-well plates and cultured overnight. The cells were pre-treated with lipopolysaccharide (LPS; 1 μg/mL) and hydrogen peroxide (H2O2, 100 μM) and then incubated with 2DG-D-Rosi conjugates at varying concentrations (50, 100, and 250 μg/mL) for 24 hours at 37° C. in a CO2 incubator. Following the treatment, the consumed culture media was collected and centrifuged at 12,000×g for 10 minutes to remove cellular debris. A 50 μL aliquot of the supernatant was added to ELISA plates pre-coated with primary antibodies for TNF-α and IL-6, respectively, and incubated for approximately 2 h. The cytokine concentrations (pg/mL) were determined using standard calibration curves provided in the ELISA kit, adhering to the manufacturer's instructions. All experiments were performed in triplicates, with appropriate controls.

[8] = system: CATH.a cells; assay: JC-1 mitochondrial membrane potential (MMP) assay; format: cell-based; conditions: for MFI of J-monomers (confocal): control ~141
Protocol: The JC-1 Mitochondrial Membrane Potential (MMP) Assay was used to assess 2DG-D-Rosi effects on CATH.a cells under TBI-like conditions via flow cytometry and confocal microscopy. Cells were pre-treated with LPS (1 μg/mL) and H2O2 (100 μM), followed by 2DG-D-Rosi treatment for 24 hours at 37° C., 5% CO2. After incubation, cells were stained with 2 μM JC-1 dye for 20 minutes at 37° C. in the dark. For flow cytometry, cells were analyzed on an Attune NxT® Flow Cytometer, with JC-1 monomers (green, depolarized mitochondria) detected in BL-1 (530/30 nm) and J-aggregates (red, polarized mitochondria) in YL-1 (585/16 nm). For confocal microscopy, cells were seeded on poly-L-lysine-coated coverslips, stained with JC-1, counterstained with DAPI, and imaged using a Leica SP-5 Confocal Microscope (20× water immersion magnification). The experiment was conducted in triplicate (n=3), and data were analyzed using GraphPad Prism® with statistical significance determined by a two-tailed t-test.

[9] = system: CATH.a cells; assay: Annexin V/propidium iodide assay; format: cell-based; conditions: 250 μg/mL
Protocol: Apoptosis/necrosis was assessed in CATH.a cells using the FITC ApoScreen® Annexin V Apoptosis Kit. Cells were pre-treated with LPS (1 μg/mL) and H2O2 (100 μM) for 6 hours to mimic TBI-like conditions, followed by 2DG-D-Rosi treatment for 24 hours at 37° C., 5% CO2. After incubation, cells were harvested, washed twice with cold PBS, and resuspended in 100 μL of 1× Annexin Binding Buffer. Staining was performed with 10 μL Annexin V-FITC and 10 μL Propidium Iodide (PI) for 15 minutes at 2-8° C. in the dark, followed by dilution with 380 μL 1× Annexin Binding Buffer. Samples were analyzed on an Attune NxT® Flow Cytometer using BL-1 (530/30 nm) for Annexin V-FITC and YL-1 (585/16 nm) for PI. Controls included unstained, Annexin V-only, and PI-only samples. Density plots were generated to classify viable, early apoptotic, necrotic, and late apoptotic/necrotic cells. The experiment was performed in triplicate (n=3), and data was analyzed using GraphPad Prism® with statistical significance determined by a two-tailed t-test.

[10] = system: Caspase-3/7; assay: Caspase-3/7 activity assay; format: cell-based; conditions: for caspase activity (confocal, ImageJ): control 100%
Protocol: For flow cytometry, 1×10^5lls per sample were incubated with Pheno Vue® 505 caspase-3/7 stain in fresh medium for 30 minutes, washed with PBS, and analyzed on an Attune NxT® Flow Cytometer using BL-1 (530/30 nm) for caspase activation detection. For confocal microscopy, 2×10^5 cells per well were seeded on poly-L-lysine-coated coverslips, stained with caspase-3/7 reagent, fixed in 4% PFA, permeabilized with 0.1% Triton® X-100, and counterstained with DAPI. Coverslips were mounted with Vectashield Plus® antifade medium and imaged using a Leica SP-5 Confocal Microscope (20× water immersion lens). The experiment was conducted in triplicate (n=3), and statistical significance was determined using GraphPad Prism® with a two-tailed t-test.

[11] = system: PPARγ; assay: PPARγ expression by flow cytometry and immunofluorescence; format: cell-based; conditions: for PPARγ expression (confocal, ImageJ): LPS:H2O2 group 1-fold
Protocol: For flow cytometry, 1×10^5 cells per sample were fixed in 4% PFA, permeabilized with 0.2% Triton® X-100, blocked with 3% BSA, and incubated overnight at 4° C. with an anti-PPARγ antibody.
For immunofluorescence, 5×10^4 cells per well were grown on poly-L-lysine-coated coverslips, treated, washed, and blocked with 3% BSA, followed by overnight incubation with an anti-PPARγ antibody at 4° C. on a 3D shaker. […] Imaging was performed using a […] SP5 Confocal Microscope (20× water immersion lens). The experiment was conducted in triplicate (n=3), and statistical significance was determined using GraphPad Prism® with a two-tailed t-test.

CCc1ccc(CCOc2ccc(CC3SC(=O)NC3=O)cc2)nc1 (stereo not drawn) [Pio, pioglitazone]
water solubility of free Pio [1]: 4.42 µg/mL

CN(CCOc1ccc(CC2SC(=O)NC2=O)cc1)c1ccccn1 (stereo not drawn) [Rosi, rosiglitazone]
solubility in water [2]: sparingly soluble | cytotoxicity (MTT) [3]: No toxic effects | cytotoxicity (MTT) [4]: No toxic effects | cytotoxicity (MTT) [5]: No toxic effects | TNF-α levels ([6]; 100 μg/mL): 0.91 fold | TNF-α levels ([6]; 250 μg/mL): 0.85 fold | TNF-α levels ([6]; 500 μg/mL): 0.77 fold | IL-6 levels ([7]; 50 μg/mL): 0.88 fold | IL-6 levels ([7]; 100 μg/mL): 0.86 fold | IL-6 levels ([7]; 250 μg/mL): 0.67 fold | MFI of J-monomers (confocal) ([8]; 50 μg/mL): ~89 | MFI of J-monomers (confocal) ([8]; 100 μg/mL): 74 | MFI of J-aggregates (red fluorescence) ([8]; 250 μg/mL, LPS:H2O2 group ~2.7): ~78.1 | MFI of J-monomers (confocal) ([8]; 250 μg/mL): 72 | healthy mitochondria, flow cytometry ([8]; LPS+H2O2 ~0.24%, 2DG-D and Rosi at 250): ~21.54% | depolarized mitochondria (J-Mon+/J-Agg-), flow cytometry ([8]; LPS+H2O2 ~95.13%, 2DG-D and Rosi at 250): ~69.73% | necrosis ([9]; LPS:H2O2 treated CATH.a (~31.07%)): ~1.67% | apoptosis ([9]; LPS:H2O2 treated CATH.a): ~54.6% | caspase activity (confocal, ImageJ) ([10]; 50 μg/mL): ~75% | caspase activity (confocal, ImageJ) ([10]; 100 μg/mL): ~63% | caspase activity (confocal, ImageJ) ([10]; 250 μg/mL): ~68% | lowering of caspase activity ([10]; free Rosi vs LPS:H2O2, flow cytometry): ~70% | PPARγ expression (confocal, ImageJ) ([11]; 50 μg/mL): 1.82 fold | PPARγ expression (confocal, ImageJ) ([11]; 100 μg/mL): 1.79 fold | PPARγ expression (confocal, ImageJ) ([11]; 250 μg/mL): 1.9 fold | PPARγ expression MFI (flow cytometry) ([11]; LPS+H2O2 ~206, untreated ~112): ~556
